Experimental data as given in patent EP4729615A1, “SIRNA TARGETING MMP7, SIRNA CONJUGATE AND MEDICAL USE THEREOF” (Tuojie Biotech (Shanghai) Co., Ltd., priority 2023, dated 2024).
Strand notation (5' to 3'): a small letter for the sugar, then the base; units joined by * are phosphorothioate-linked, units joined directly phosphodiester-linked; [ ] holds rarer units or linkages, { } end groups; capitals alone tell only the bases. {I-14} = ligand I-14 conjugated at sense 5' end; m = 2'-O-methyl; f = 2'-fluoro

Key:
[1] = molecular target: human recombinant αvβ6 protein (Homo sapiens, UniProt P06756+P18564); assay: fluorescence polarization (FP) binding assay with fluorescent RGD peptide; details: 12 concentration points, highest 10 µM, 3-fold serial dilution
Sequence of human recombinant αvβ6 protein (P06756 31-992 limits assumed): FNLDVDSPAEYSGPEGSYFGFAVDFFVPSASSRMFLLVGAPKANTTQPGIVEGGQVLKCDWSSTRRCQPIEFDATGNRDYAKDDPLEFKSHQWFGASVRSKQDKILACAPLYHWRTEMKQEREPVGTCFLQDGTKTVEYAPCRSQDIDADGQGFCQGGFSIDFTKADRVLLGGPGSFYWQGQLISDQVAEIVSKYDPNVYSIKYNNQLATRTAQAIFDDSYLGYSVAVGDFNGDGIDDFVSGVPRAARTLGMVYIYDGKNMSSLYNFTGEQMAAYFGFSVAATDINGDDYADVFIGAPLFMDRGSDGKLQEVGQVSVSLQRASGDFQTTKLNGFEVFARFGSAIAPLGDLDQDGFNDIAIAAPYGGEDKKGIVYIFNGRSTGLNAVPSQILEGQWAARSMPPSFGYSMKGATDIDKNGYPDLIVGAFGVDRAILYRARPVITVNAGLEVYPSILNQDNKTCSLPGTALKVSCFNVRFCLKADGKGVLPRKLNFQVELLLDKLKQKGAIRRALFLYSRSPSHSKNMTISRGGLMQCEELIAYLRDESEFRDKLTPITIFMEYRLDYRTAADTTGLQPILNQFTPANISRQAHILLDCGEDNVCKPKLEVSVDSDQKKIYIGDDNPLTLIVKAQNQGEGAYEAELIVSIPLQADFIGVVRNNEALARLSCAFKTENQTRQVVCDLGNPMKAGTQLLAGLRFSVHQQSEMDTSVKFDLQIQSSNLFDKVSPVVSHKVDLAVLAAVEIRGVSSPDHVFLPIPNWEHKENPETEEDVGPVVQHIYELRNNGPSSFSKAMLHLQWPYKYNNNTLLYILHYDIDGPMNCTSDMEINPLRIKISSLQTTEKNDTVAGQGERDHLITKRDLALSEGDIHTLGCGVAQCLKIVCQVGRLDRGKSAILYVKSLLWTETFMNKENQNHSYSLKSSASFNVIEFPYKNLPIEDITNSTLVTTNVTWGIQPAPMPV
Sequence of human recombinant αvβ6 protein (P18564 22-707 limits assumed): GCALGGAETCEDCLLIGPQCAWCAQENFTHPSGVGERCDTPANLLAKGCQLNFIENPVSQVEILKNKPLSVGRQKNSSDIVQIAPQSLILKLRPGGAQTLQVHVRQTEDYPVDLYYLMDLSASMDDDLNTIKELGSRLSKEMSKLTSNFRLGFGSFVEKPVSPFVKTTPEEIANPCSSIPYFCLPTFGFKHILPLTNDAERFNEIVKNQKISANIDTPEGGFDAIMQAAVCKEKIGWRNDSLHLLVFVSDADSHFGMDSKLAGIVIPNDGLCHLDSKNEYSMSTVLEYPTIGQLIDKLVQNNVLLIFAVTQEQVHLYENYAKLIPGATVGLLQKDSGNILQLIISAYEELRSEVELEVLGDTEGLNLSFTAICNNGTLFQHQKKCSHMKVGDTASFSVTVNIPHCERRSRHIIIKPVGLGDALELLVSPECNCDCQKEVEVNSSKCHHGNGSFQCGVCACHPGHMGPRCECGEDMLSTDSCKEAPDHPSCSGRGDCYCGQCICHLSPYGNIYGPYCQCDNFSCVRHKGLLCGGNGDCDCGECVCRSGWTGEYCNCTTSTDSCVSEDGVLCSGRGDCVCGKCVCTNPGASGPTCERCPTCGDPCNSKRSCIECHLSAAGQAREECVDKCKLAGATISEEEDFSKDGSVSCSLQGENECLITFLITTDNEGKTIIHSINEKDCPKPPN
Experimental: The specific assay method is as follows: • 3.5 µL of test compound I-12 was added to a 384-well black plate. For the test compound, 12 concentration points were set up. The highest concentration was 10 µM, and 3-fold serial dilution was performed. DMSO control wells were used to determine the maximum signal, and 500 nM compound CWHM-12 (MCE, HY-18644) control wells were used as the minimum signal. Then, 3.5 µL of 4× human recombinant αvβ6 protein working solution was added. After incubation at room temperature for 15 min, 7 µL of 2× fluorescent RGD peptide solution was added to each well. The plate was incubated at room temperature for 1 h, and then FP signals were read using Envision. Using GraphPad Prism, the inhibition curve fitting was performed, and the IC50 value was calculated. The IC50 value (Z prime > 0.5) was calculated using the following formula: Y = Bottom + (Top−Bottom)/(1+10^(∧)((LogIC50−X)×HillSlope)) [formula] • X: Log inhibitor concentration; Y: inhibition rate %.

MMP7 mRNA = assay: on-target activity of siRNA conjugates at 2 endogenous concentration points in HCC38 cells, Q-PCR (Example 10); type: cell-based, human; details: 24 h after transfection; for 2 nM remaining expression (%): siRNA conjugate 2 nM; for 10 nM remaining expression (%): siRNA conjugate 10 nM
Experimental: The siRNA conjugates were subjected to an in vitro molecular-level activity screening in HCC38 cells using 2 concentration gradients.
HCC38 cells were cultured at 37 °C with 5% CO2 in a 1640 culture medium containing 10% fetal bovine serum. 24 h prior to transfection, the HCC38 cells were seeded into a 96-well plate at a density of 1.5 × 10^4 cells per well, with each well containing 100 µL of the culture medium.
The cells were transfected with the siRNA conjugates using Lipofectamine RNAi Max (Invitrogen, 13778-150) according to the instructions. 0.3 µL of Lipofectamine RNAi Max was used for each well. A total of 2 concentration points were set for the siRNA conjugates, i.e., 10 nM and 2 nM, respectively. 24 h after transfection, RNA was extracted for Q-PCR to detect the activity of the siRNA conjugates. […] Table 9. Activity results of siRNA conjugates at 2 concentration points at the HCC38 cellular level

Molecule	IC50 [1]	2 nM remaining expression (%) (MMP7 mRNA)	10 nM remaining expression (%) (MMP7 mRNA)
[N-]=[N+]=NCCOCCOCCOCCOCCOc1ccc(-c2ccc([C@H](CC(=O)O)NC(=O)CNC(=O)CCCNc3cc4ccccc4cn3)cc2)c2ccccc12 [I-12]	79.9 nM	–	–
TJR103312: siRNA conjugate containing I-14; SS SEQ ID NO 28 (I-14UmsGmsGmGmUmAmGfAfUfGmUmCmAmAmUmAmAmAmUm), AS SEQ ID NO 58 (sense {I-14}-mU*mG*mGmGmUmAfGfAfUmGmUmCmAmAmUmAmAmAmU; antisense AUUUAUUGACAUCUACCCACU; antisense: chemistry not given here)	–	11.35%	8.20%
TJR103313: siRNA conjugate containing I-14; SS SEQ ID NO 29 (I-14UmsGmsAmCmUmCmAfGfAfAmAmCmAmAmAmAmAmAmUm), AS SEQ ID NO 59 (sense {I-14}-mU*mG*mAmCmUmCfAfGfAmAmAmCmAmAmAmAmAmAmU; antisense AUUUUUUGUUUCUGAGUCAUA; antisense: chemistry not given here)	–	8.05%	4.23%
TJR103314: siRNA conjugate containing I-14; SS SEQ ID NO 30 (I-14AmsUmsUmCmAmAmGfAfAfAmGmAmAmAmUmAmGmAmAm), AS SEQ ID NO 60 (sense {I-14}-mA*mU*mUmCmAmAfGfAfAmAmGmAmAmAmUmAmGmAmA; antisense UUCUAUUUCUUUCUUGAAUUA; antisense: chemistry not given here)	–	14.73%	8.03%
